{"source": "patent US20250281499A1", "about": "“FUSED AMINO PYRIMIDINE COMPOUNDS FOR TREATMENT OF NEUROPATHIC AND NEURO-INFLAMMATORY PAIN” (Ovid Therapeutics Inc., priority 2024, published 2025)", "target": "T1, KCC2-S940A (Homo sapiens, UniProt Q9H2X9, S963A)", "T1 construct": "expressed in transfected cells; host or cells: HEK-293", "T1 sequence (Q9H2X9 1-1116 isoform Q9H2X9-2 S940A)": "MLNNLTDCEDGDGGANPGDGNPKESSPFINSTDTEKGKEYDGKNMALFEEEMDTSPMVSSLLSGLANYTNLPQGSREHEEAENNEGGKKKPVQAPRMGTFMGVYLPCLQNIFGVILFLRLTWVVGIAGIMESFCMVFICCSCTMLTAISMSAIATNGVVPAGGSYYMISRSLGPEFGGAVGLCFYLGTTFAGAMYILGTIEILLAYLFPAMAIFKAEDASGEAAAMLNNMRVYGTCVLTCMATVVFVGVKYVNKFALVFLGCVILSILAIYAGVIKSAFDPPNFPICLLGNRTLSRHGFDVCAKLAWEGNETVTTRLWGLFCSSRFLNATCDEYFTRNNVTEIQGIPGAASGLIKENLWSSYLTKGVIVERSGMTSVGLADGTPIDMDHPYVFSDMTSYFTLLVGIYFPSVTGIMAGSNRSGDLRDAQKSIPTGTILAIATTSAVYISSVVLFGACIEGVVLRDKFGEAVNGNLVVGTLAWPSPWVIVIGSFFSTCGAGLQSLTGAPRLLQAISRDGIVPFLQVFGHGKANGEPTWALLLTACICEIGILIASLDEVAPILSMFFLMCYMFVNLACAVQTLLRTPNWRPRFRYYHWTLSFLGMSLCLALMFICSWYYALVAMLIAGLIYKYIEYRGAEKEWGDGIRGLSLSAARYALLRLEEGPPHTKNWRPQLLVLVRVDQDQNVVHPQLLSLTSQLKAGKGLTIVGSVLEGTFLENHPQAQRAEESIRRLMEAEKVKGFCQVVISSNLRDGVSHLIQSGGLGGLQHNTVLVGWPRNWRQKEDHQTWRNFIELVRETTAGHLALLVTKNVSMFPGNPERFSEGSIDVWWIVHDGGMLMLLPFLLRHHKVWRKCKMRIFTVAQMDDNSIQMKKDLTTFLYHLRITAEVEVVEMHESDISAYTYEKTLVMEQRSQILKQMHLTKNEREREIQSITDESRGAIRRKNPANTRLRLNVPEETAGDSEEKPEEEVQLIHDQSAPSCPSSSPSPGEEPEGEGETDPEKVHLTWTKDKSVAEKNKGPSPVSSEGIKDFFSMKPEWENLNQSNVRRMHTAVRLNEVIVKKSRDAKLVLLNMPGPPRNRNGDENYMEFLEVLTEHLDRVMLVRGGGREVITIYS", "experiment": "Tl+ flux assay, KCC2-S940A construct in HEK-293 cells", "assay_type": "cell-based", "procedure": "FLIPR TI Flux assay. HEK-293 cells were washed with HBSS, and then incubated with loading buffer containing TI sensitive fluorescent dye (https://www.moleculardevices.com), 20 μM bumetanide 20 μM ouabain and 2.5 mM probenecid for 1 h at room temperature (RT) under control conditions or with drugs in the dark using a FlexStation 3 microplate reader (Molecular Devices) and imaged […] for 30 min. Stimulus buffer was added containing 5 mM K^+/0.5 mM Tl^+ and cells were imaged every 1.5 over a 190 second time course The initial rate Tl^+ uptake (Relative Fluorescence Units (RFU) per second) was determined following addition of the stimulus buffer as outlined previously (Conway et al., 2017, supra) (Lee et al., 2022, supra).\nSeveral studies have shown that the activity and plasma membrane accumulation of KCC2 is potentiated via phosphorylation of S940, a process mediated by the activity of protein kinase C and protein phosphatase 1 (Lee et al, 2011, supra; Lee et al., J Biol Chem 282, 29777-29784 (2007); Moore et al., Proc. Natl. Acad. Sci. U.S.A 115, 10166-10171 (2018); Moore et al., Trends Neurosci. 40, 555-571 (2017); Silayeva et al., Proc. Natl. Acad. Sci. U.S.A. 112, 3523-3528 (2015)). […] Compared to KCC2, effects on KCC3, KCC4, and NKCC1 were only seen at concentrations more than 35-fold that of KCC2 (>100 μM) (FIG. 1G)."}
{"smiles": "C[C@@H]1CN(c2nc3c(c(Nc4ccc(C5CCCCC5)cc4)n2)COC3)CCO1", "note": "[Compound A, (R)—N-(4-cyclohexylphenyl)-2-(2-methylmorpholino)-5,7-dihydrofuro[3,4-d]pyrimidin-4-amine]", "values": [{"measurement": "activity of KCC2-S940A construct", "result": "increased the activity"}]}
